Assay results from patent publication US11492375B2, “Cyclic peptide immunomodulators” (Bristol-Myers Squibb Company, priority 2017, dated 2022).

Target: PD-1-Ig binding to PD-L1-TVMV-His (PD-L1-His) (Homo sapiens (Human), UniProt Q9NZQ7)
Sequence (Q9NZQ7 other isoform, or with tags, fused parts or gaps): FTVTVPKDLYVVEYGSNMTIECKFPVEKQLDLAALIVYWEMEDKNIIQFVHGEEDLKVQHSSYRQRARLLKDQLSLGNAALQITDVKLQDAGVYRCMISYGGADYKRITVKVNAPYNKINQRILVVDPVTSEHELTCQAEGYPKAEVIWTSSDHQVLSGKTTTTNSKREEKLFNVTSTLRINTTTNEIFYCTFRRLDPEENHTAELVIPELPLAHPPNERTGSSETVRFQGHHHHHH
Assay: PD-1/PD-L1 Homogenous Time-Resolved Fluorescence (HTRF) binding assay
Details: PD-1-Ig/PD-L1-His binding; numeric value; read-out: HTRF IC50 (μM) or Range
Excerpt: The ability of the macrocyclic peptides of the present disclosure to bind to PD-L1 was investigated using a PD-1/PD-L1 Homogenous Time-Resolved Fluorescence (HTRF) binding assay.
Homogenous Time-Resolved Fluorescence (HTRF) Assays of Binding of Soluble PD-1 to Soluble PD-L1. Soluble PD-1 and soluble PD-L1 refers to proteins with carboxyl-end truncations that remove the transmembrane-spanning regions and are fused to heterologous sequences, specifically the Fc portion of the human immunoglobuling G sequence (Ig) or the hexahistidine epitope tag (His). All binding studies were performed in an HTRF assay buffer consisting of dPBS supplemented with 0.1% (w/v) bovine serum albumin and 0.05% (v/v) Tween-20. For the PD-1-Ig/PD-L1-His binding assay, inhibitors were pre-incubated with PD-L1-His (10 nM final) for 15m in 4 μl of assay buffer, followed by addition of PD-1-Ig (20 nM final) in 1 μl of assay buffer and further incubation for 15 m. PD-L1 fusion proteins from either human, cynomologous macaques, mouse, or other species were used. HTRF detection was achieved using europium crypate-labeled anti-Ig monoclonal antibody (1 nM final) and allophycocyanin (APC) labeled anti-His monoclonal antibody (20 nM final). Antibodies were diluted in HTRF detection buffer and 5 μl was dispensed on top of binding reaction. The reaction was allowed to equilibrate for 30 minutes and signal (665 nm/620 nm ratio) was obtained using an EnVision fluorometer. Additional binding assays were established between PD-1-Ig/PD-L2-His (20 and 5 nM, respectively), CD8O-His/PD-L1-Ig (100 and 10 nM, respectively) and CD80-His/CTLA4-Ig (10 and 5 nM, respectively). Binding/competition studies between biotinylated Compound No. 71 and human PD-L1-His were performed as follows. Macrocyclic peptide inhibitors were pre-incubated with PD-L1-His (10 nM final) for 60 minutes in 4 μl of assay buffer followed by addition of biotinylated Compound No. 71 (0.5 nM final) in 1 μl of assay buffer. Binding was allowed to equilibrate for 30 minutes followed by addition of europium crypated labeled Streptavidin (2.5 pM final) and APC-labeled anti-His (20 nM final) in 5 μl of HTRF buffer. The reaction was allowed to equilibrate for 30 m and signal (665 nm/620 nm ratio) was obtained using an EnVision fluorometer.
Recombinant Proteins. Carboxyl-truncated human PD-1 (amino acids 25-167) with a C-terminal human Ig epitope tag [hPD-1 (25-167)-35-IG] and human PD-L1 (amino acids 18-239) with a C-terminal His epitope tag [hPD-L1(19-239)-tobacco vein mottling virus protease cleavage site (TVMV)-His] were expressed in HEK293T cells and purified sequentially by recombinant Protein A affinity chromatography and size exclusion chromatography. Human PD-L2-His (Sino Biologicals), CD80-His (Sino Biologicals), CTLA4-Ig (RnD Systems) were all obtained through commercial sources.
With `C[C@@H]1NC(=O)[C@@H]2CCCC/C=C\CCCC[C@@H](C(=O)N2C)N(C)C(=O)[C@H](Cc2c[nH]c3ccccc23)NC(=O)[C@H](CO)NC(=O)[C@H](Cc2c[nH]c3ccccc23)NC(=O)[C@@H]2C[C@@H](O)CN2C(=O)[C@H](CCC(N)=O)NC(=O)[C@H](Cc2cnc[nH]2)NC(=O)[C@@H]2CCCN2C(=O)[C@H](CC(=O)O)NC(=O)[C@@H]2CNCCN2C(=O)[C@H](Cc2ccc(O)cc2)NC(=O)CSC[C@@H](C(=O)NCC(N)=O)NC1=O` [Example 1115] the IC50 was 0.011 µM. Work on `C[C@@H]1NC(=O)[C@@H]2CCCC/C=C\CCCC[C@@H](C(=O)N2C)N(C)C(=O)[C@H](Cc2c[nH]c3ccccc23)NC(=O)[C@H](CO)NC(=O)[C@H](Cc2c[nH]c3ccccc23)NC(=O)[C@@H]2C[C@@H](O)CN2C(=O)[C@H](CCC(N)=O)NC(=O)[C@H](Cc2cnc[nH]2)NC(=O)[C@@H]2CCCN2C(=O)[C@H](CC(=O)O)NC(=O)[C@@H]2CCCCN2C(=O)[C@H](Cc2ccc(O)cc2)NC(=O)CSC[C@@H](C(=O)NCC(N)=O)NC1=O` [Example 1120] yielded an IC50 of 0.004 µM.

Same assay, conditions: PD-1-Ig/PD-L1-His binding; value given as range class; read-out: HTRF IC50 (μM) or Range
Compound `C[C@@H]1NC(=O)[C@@H]2CCCC/C=C\CCCC[C@@H](C(=O)N2C)N(C)C(=O)[C@H](Cc2c[nH]c3ccccc23)NC(=O)[C@H](CO)NC(=O)[C@H](Cc2c[nH]c3ccccc23)NC(=O)[C@@H]2C[C@@H](O)CN2C(=O)[C@H](CCC(N)=O)NC(=O)[C@H](Cc2cnc[nH]2)NC(=O)[C@@H]2CCCN2C(=O)[C@H](CC(=O)O)NC(=O)[C@H](C)N(C)C(=O)[C@H](Cc2ccc(O)cc2)NC(=O)CSC[C@@H](C(=O)NCC(N)=O)NC1=O` [Example 1113] has an IC50 of 0.002 to 0.0099 µM. Compound `C[C@H]1C(=O)N[C@@H](CC(=O)O)C(=O)N2CCC[C@H]2C(=O)N[C@@H](CN)C(=O)N[C@@H](CCC(=O)O)C(=O)N2C[C@H](O)C[C@H]2C(=O)N[C@@H](Cc2c[nH]c3ccccc23)C(=O)N[C@@H](CO)C(=O)N[C@@H](Cc2c[nH]c3ccccc23)C(=O)N(C)[C@H]2CCC/C=C\CCCC[C@@H](C(=O)N[C@@H](CCC(=O)O)C(=O)N[C@H](C(=O)NCC(N)=O)CSCC(=O)N[C@@H](Cc3ccc(O)cc3)C(=O)N1C)N(C)C2=O` [Example 1116] has an IC50 of 0.01 to 0.099 µM. `C[C@H]1C(=O)N[C@@H](CC(=O)O)C(=O)N2CCC[C@H]2C(=O)N[C@@H](CN)C(=O)N[C@@H](CCC(=O)O)C(=O)N2C[C@H](O)C[C@H]2C(=O)N[C@@H](Cc2c[nH]c3ccccc23)C(=O)N[C@@H](CO)C(=O)N[C@@H](Cc2cn(CC(=O)O)c3ccccc23)C(=O)N(C)[C@H]2CCCC/C=C\CCCC[C@@H](C(=O)N[C@@H](CCC(=O)O)C(=O)N[C@H](C(=O)NCC(N)=O)CSCC(=O)N[C@@H](Cc3ccc(O)cc3)C(=O)N1C)N(C)C2=O` [Example 1117] gave an IC50 of 0.002 to 0.0099 µM. For `C[C@H]1C(=O)N[C@@H](CC(=O)O)C(=O)N2CCC[C@H]2C(=O)N[C@@H](CN)C(=O)N[C@@H](CCC(=O)O)C(=O)N2C[C@H](O)C[C@H]2C(=O)N[C@@H](Cc2c[nH]c3ccccc23)C(=O)N[C@@H](CO)C(=O)N[C@@H](Cc2csc3ccccc23)C(=O)N(C)[C@H]2CCCC/C=C\CCCC[C@@H](C(=O)N[C@@H](CN)C(=O)N[C@H](C(=O)NCC(N)=O)CSCC(=O)N[C@@H](Cc3ccc(O)cc3)C(=O)N1C)N(C)C2=O` [Example 1118], the IC50 was 0.002 to 0.0099 µM. With `CN1C(=O)[C@H](Cc2csc3ccccc23)NC(=O)[C@H](CO)NC(=O)[C@H](Cc2c[nH]c3ccccc23)NC(=O)[C@@H]2C[C@@H](O)CN2C(=O)[C@H](CCC(N)=O)NC(=O)[C@H](CN)NC(=O)[C@@H]2CCCN2C(=O)[C@H](CC(=O)O)NC(=O)[C@@H]2CCCCN2C(=O)[C@H](Cc2ccc(O)cc2)NC(=O)CSC[C@@H](C(=O)NCC(N)=O)NC(=O)[C@H](CN)NC(=O)[C@@H]2CCCC/C=C\CCCC[C@H]1C(=O)N2C` [Example 1119] the IC50 was 0.002 to 0.0099 µM. Work on `CN1C(=O)[C@H](Cc2cn(CC(=O)O)c3ccccc23)NC(=O)[C@H](CCN)NC(=O)[C@H](Cc2c[nH]c3ccccc23)NC(=O)[C@@H]2C[C@@H](O)CN2C(=O)[C@H](CCC(=O)O)NC(=O)[C@H](CN)NC(=O)[C@@H]2CCCN2C(=O)[C@H](CC(=O)O)NC(=O)[C@H]2CCCCN2C(=O)[C@H](Cc2ccc(O)cc2)NC(=O)CSC[C@@H](C(=O)NCC(N)=O)NC(=O)[C@H](CCC(=O)O)NC(=O)[C@@H]2Cc3ccc(cc3)OCC=CCCC[C@H]1C(=O)N2C` [Example 1121] yielded an IC50 of 0.01 to 0.099 µM. Work on `C[C@H]1C(=O)N[C@@H](CC(=O)O)C(=O)N2CCC[C@H]2C(=O)N[C@@H](CN)C(=O)N[C@@H](CCC(=O)O)C(=O)N2C[C@H](O)C[C@H]2C(=O)N[C@@H](Cc2c[nH]c3ccccc23)C(=O)N[C@@H](CCN)C(=O)N[C@@H](Cc2cn(CC(=O)O)c3ccccc23)C(=O)N(C)C2CCCCC/C=C\CCCC[C@@H](C(=O)N[C@@H](CCC(=O)O)C(=O)N[C@H](C(=O)NCC(N)=O)CSCC(=O)N[C@@H](Cc3ccc(O)cc3)C(=O)N1C)N(C)C2=O` [Example 1122] yielded an IC50 of 0.002 to 0.0099 µM.

System: not given
Assay: not given
Details: oral formulation ENTOCORT EC, extensive first-pass metabolism; cited from earlier work
For `CCCC1O[C@@H]2C[C@H]3[C@@H]4CCC5=CC(=O)C=C[C@]5(C)[C@H]4[C@@H](O)C[C@]3(C)[C@]2(C(=O)CO)O1` (stereo partly shown) [budesonide], the bioavailability is given as “about 10%”.
